Two molecules from PMC5651824, “Membrane binding of the insertion sequence of Proteus vulgaris L-amino acid deaminase stabilizes protein structure and increases catalytic activity” (Scientific Reports, 2017) can be followed below.

In one series the target is T1, ΔN-pvLAAD (Proteus vulgaris, UniProt Q9LCB2).
T1 construct: gene LAD; N-terminal Tat peptide truncated, residues 30-471; recombinant in E. coli M15, Ni-NTA (His tag) and size exclusion
T1 sequence (Q9LCB2 30-471): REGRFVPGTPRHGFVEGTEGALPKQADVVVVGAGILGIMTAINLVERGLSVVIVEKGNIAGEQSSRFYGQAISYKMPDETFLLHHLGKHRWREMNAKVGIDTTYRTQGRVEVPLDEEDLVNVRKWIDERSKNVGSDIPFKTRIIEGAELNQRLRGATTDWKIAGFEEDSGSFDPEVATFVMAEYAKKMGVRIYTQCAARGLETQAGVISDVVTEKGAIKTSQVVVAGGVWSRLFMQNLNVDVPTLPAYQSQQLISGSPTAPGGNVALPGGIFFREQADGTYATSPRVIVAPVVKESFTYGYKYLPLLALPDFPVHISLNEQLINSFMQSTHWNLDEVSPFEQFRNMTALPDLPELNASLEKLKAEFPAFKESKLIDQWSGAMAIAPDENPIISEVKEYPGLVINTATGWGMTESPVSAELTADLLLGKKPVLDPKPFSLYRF
Nature of the series: phenylpyruvate formation, absorbance at […] nm. The class given is biochemical. Particulars: without membrane; 25 mM substrate; 50 mM potassium phosphate pH 7.5; 25 °C; 10 µM enzyme.

Substrate in the series “purified protein”: N[C@@H](Cc1ccccc1)C(=O)O
The series is described as follows: purified protein. To be noted: without membrane, 50 mM potassium phosphate pH 7.5, 37 °C, 5 µM enzyme, 5 min. The class given is biochemical, Proteus vulgaris.

Turning to `N[C@@H](Cc1ccccc1)C(=O)O` [L-phenylalanine], the “phenylpyruvate formation, absorbance at 321 nm” value at ΔN-pvLAAD is reported as “does not affect the catalytic activity of pvLAAD in solution”.

B1: FL-pvLAAD (Proteus vulgaris) (protein)
chain: MAISRRKFIIGGTVVAVAAGAGILTPMLTREGRFVPGTPRHGFVEGTEGALPKQADVVVVGAGILGIMTAINLVERGLSVVIVEKGNIAGEQSSRFYGQAISYKMPDETFLLHHLGKHRWREMNAKVGIDTTYRTQGRVEVPLDEEDLVNVRKWIDERSKNVGSDIPFKTRIIEGAELNQRLRGATTDWKIAGFEEDSGSFDPEVATFVMAEYAKKMGVRIYTQCAARGLETQAGVISDVVTEKGAIKTSQVVVAGGVWSRLFMQNLNVDVPTLPAYQSQQLISGSPTAPGGNVALPGGIFFREQADGTYATSPRVIVAPVVKESFTYGYKYLPLLALPDFPVHISLNEQLINSFMQSTHWNLDEVSPFEQFRNMTALPDLPELNASLEKLKAEFPAFKESKLIDQWSGAMAIAPDENPIISEVKEYPGLVINTATGWGMTESPVSAELTADLLLGKKPVLDPKPFSLYRF
notes: full-length with non-cleaved N-terminal Tat peptide (ends at residue 471); recombinant in E. coli M15, Ni-NTA (His tag) and size exclusion
In the case of B1, the Km (in general, the substrate concentration at which the rate is half of its maximum) in the series “purified protein” is 12.56 ± 3.19 mM.
